Data taken from the NIST ThermoML archive (doi:10.1016/j.jct.2016.08.026).

Experiment: xn = mol fraction of the nth substance listed
Conditions: 101 kPa, Liquid, Pycnometric method

C=CC(=O)OCCCC [butyl 2-propenoate] + CC#N
mass density [kg/m3]
Conditions | 293.15 K | 298.15 K | 303.15 K | 308.15 K | 313.15 K | 318.15 K
x2 = 0 | 898.85 | 894.1 | 889.35 | 884.6 | 879.85 | 875.1
x2 = 0.061 | 896.58 | 891.84 | 887.1 | 882.36 | 877.62 | 872.87
x2 = 0.1168 | 894.23 | 889.49 | 884.75 | 880.01 | 875.26 | 870.51
x2 = 0.1832 | 891.06 | 886.31 | 881.56 | 876.81 | 872.05 | 867.29
x2 = 0.2571 | 887.05 | 882.28 | 877.51 | 872.73 | 867.95 | 863.17
x2 = 0.3094 | 883.86 | 879.07 | 874.28 | 869.49 | 864.69 | 859.89
x2 = 0.3825 | 878.86 | 874.05 | 869.23 | 864.41 | 859.59 | 854.77
x2 = 0.4563 | 873.07 | 868.23 | 863.39 | 858.55 | 853.7 | 848.85
x2 = 0.5282 | 866.62 | 861.75 | 856.88 | 852.01 | 847.13 | 842.25
x2 = 0.5779 | 861.58 | 856.69 | 851.79 | 846.89 | 841.99 | 837.09
x2 = 0.6483 | 853.47 | 848.54 | 843.6 | 838.66 | 833.72 | 828.79
x2 = 0.7299 | 842.32 | 837.34 | 832.35 | 827.36 | 822.37 | 817.38
x2 = 0.8143 | 828.2 | 823.15 | 818.1 | 813.05 | 807.99 | 802.93
x2 = 0.9182 | 805.7 | 800.53 | 795.36 | 790.19 | 785.01 | 779.83

C=CC(=O)OCC [ethyl propenoate] + CC#N
mass density [kg/m3]
Conditions | 293.15 K | 298.15 K | 303.15 K | 308.15 K | 313.15 K | 318.15 K
x2 = 0 | 921.76 | 915.95 | 910.14 | 904.33 | 898.52 | 892.71
x2 = 0.0611 | 918.24 | 912.49 | 906.74 | 900.99 | 895.24 | 889.48
x2 = 0.1197 | 914.45 | 908.75 | 903.05 | 897.35 | 891.64 | 885.93
x2 = 0.1852 | 909.73 | 904.07 | 898.4 | 892.73 | 887.06 | 881.39
x2 = 0.2385 | 905.48 | 899.84 | 894.2 | 888.55 | 882.9 | 877.25
x2 = 0.2966 | 900.45 | 894.83 | 889.21 | 883.58 | 877.95 | 872.32
x2 = 0.3675 | 893.69 | 888.1 | 882.5 | 876.9 | 871.3 | 865.7
x2 = 0.436 | 886.46 | 880.89 | 875.32 | 869.75 | 864.18 | 858.61
x2 = 0.4982 | 879.23 | 873.69 | 868.15 | 862.61 | 857.07 | 851.53
x2 = 0.5745 | 869.38 | 863.88 | 858.38 | 852.88 | 847.38 | 841.87
x2 = 0.6519 | 858.1 | 852.64 | 847.18 | 841.72 | 836.26 | 830.8
x2 = 0.725 | 846 | 840.58 | 835.16 | 829.74 | 824.32 | 818.9
x2 = 0.8185 | 828.05 | 822.69 | 817.33 | 811.97 | 806.6 | 801.23
x2 = 0.9145 | 805.92 | 800.6 | 795.28 | 789.96 | 784.63 | 779.3

C=CC(=O)OC [methyl propenoate] + CC#N
mass density [kg/m3]
Conditions | 293.15 K | 298.15 K | 303.15 K | 308.15 K | 313.15 K | 318.15 K
x2 = 0 | 953.51 | 947.56 | 941.61 | 935.66 | 929.71 | 923.76
x2 = 0.0591 | 948.65 | 942.78 | 936.9 | 931.02 | 925.14 | 919.27
x2 = 0.1171 | 943.34 | 937.51 | 931.68 | 925.85 | 920.01 | 914.17
x2 = 0.17 | 938.02 | 932.22 | 926.42 | 920.62 | 914.81 | 909
x2 = 0.2356 | 930.83 | 925.06 | 919.29 | 913.52 | 907.75 | 901.97
x2 = 0.2977 | 923.4 | 917.66 | 911.92 | 906.18 | 900.43 | 894.68
x2 = 0.3615 | 915.12 | 909.41 | 903.7 | 897.99 | 892.28 | 886.56
x2 = 0.4343 | 904.86 | 899.19 | 893.52 | 887.85 | 882.17 | 876.49
x2 = 0.5014 | 894.57 | 888.94 | 883.31 | 877.67 | 872.03 | 866.39
x2 = 0.5738 | 882.48 | 876.9 | 871.32 | 865.73 | 860.14 | 854.55
x2 = 0.6537 | 867.83 | 862.31 | 856.79 | 851.26 | 845.73 | 840.2
x2 = 0.7623 | 845.33 | 839.89 | 834.45 | 829.01 | 823.57 | 818.13
x2 = 0.8155 | 833.04 | 827.65 | 822.26 | 816.87 | 811.47 | 806.07
x2 = 0.9074 | 809.47 | 804.14 | 798.81 | 793.47 | 788.13 | 782.79

C=CC(=O)OC(C)(C)C [tert-butyl acrylate] + CC#N
mass density [kg/m3]
Conditions | 293.15 K | 298.15 K | 303.15 K | 308.15 K | 313.15 K | 318.15 K
x2 = 0 | 884.13 | 879.66 | 875.2 | 870.74 | 866.28 | 861.82
x2 = 0.0772 | 881.52 | 877.05 | 872.58 | 868.11 | 863.64 | 859.17
x2 = 0.1496 | 878.71 | 874.23 | 869.74 | 865.25 | 860.76 | 856.27
x2 = 0.2216 | 875.53 | 871.02 | 866.51 | 861.99 | 857.47 | 852.95
x2 = 0.2983 | 871.66 | 867.11 | 862.56 | 858 | 853.44 | 848.88
x2 = 0.3643 | 867.87 | 863.28 | 858.69 | 854.1 | 849.51 | 844.91
x2 = 0.4345 | 863.31 | 858.68 | 854.05 | 849.42 | 844.78 | 840.14
x2 = 0.5074 | 857.88 | 853.2 | 848.52 | 843.84 | 839.16 | 834.47
x2 = 0.5769 | 851.91 | 847.18 | 842.45 | 837.72 | 832.98 | 828.24
x2 = 0.6465 | 844.97 | 840.18 | 835.39 | 830.6 | 825.8 | 821
x2 = 0.7141 | 837.1 | 832.24 | 827.38 | 822.52 | 817.66 | 812.8
x2 = 0.7821 | 827.76 | 822.83 | 817.9 | 812.96 | 808.02 | 803.08
x2 = 0.8603 | 814.71 | 809.68 | 804.64 | 799.6 | 794.56 | 789.51
x2 = 0.9345 | 799.24 | 794.08 | 788.92 | 783.75 | 778.58 | 773.41
